The source of these data is patent US20040048754A1, “Compounds for a controlled release of active compounds” (priority 2001, published 2004).

Holding throughout (type): physicochemical
A short description of series [1]: Amount of cyclization of the precursor under alkaline hydrolysis conditions (HPLC). As to conditions: 20° C., first step of cyclization only, % relative to total amount of starting compound. As to the method: Buffer solutions were prepared by dissolving two phosphate or borate buffer tablets (origin: Fluka, Switzerland) in a mixture of 160 ml water and 40 ml acetonitrile, respectively. To determine the exact pH value of the reaction solution, 10 ml of the buffer solutions were diluted with 2 ml of acetonitrile and the pH values measured (on a Mettler Toledo MP220 apparatus with an InLab 410 Ag/AgCl glass electrode) to be 7.62 (phosphate buffer) and 10.47 (borate buffer).
0.2 ml of a solution of 35 to 45 mg of the precursors in 25 ml of acetonitrile were added to 1.0 ml of a buffer solution at 20° C. The mixture was immediately injected in a HPLC apparatus (t=0), eluted at 1 ml/min on a reversed phase column with a mixture of water/acetonitrile containing 0.1% of TFA. Then the decrease of the amount of precursor and the simultaneous formation of the cyclized products was monitored at different time intervals at λ=254 and 280 nm. Chromatograms were recorded on a Macherey-Nagel, Nucleosil® 100-5 C18 column (250×4 mm i.d.) using a water/acetonitrile gradient (70:30 to 20:80 during 20 min) or on a Merck Chromolith™ SpeedROD RP-C18e column (50×4.6 mm i.d.) using a water/acetonitrile gradient (70:30 to 40:60 during 3 min).

Series [2] is described as follows: Measure of fragrance release (hydrolysis) by UV spectroscopy. As to conditions: phosphate buffer, 20° C., 260-360 nm. As to the method:
2 ml of a precursor solution (35-55 mg in 25 ml of acetonitrile, at 20° C.) were added, at t=0, to 10 ml of a phosphate buffer solution (prepared as described in Example 14).
Hydrolysis was followed by recording the absorption spectra of the reaction mixture at constant time intervals in the range of 260-360 nm with a scanning rate of 960 nm/min until completion of the hydrolysis.

Series [3] in a line: Amount of perfumery alcohols released by alkaline hydrolysis (HPLC). As to conditions: % relative to total amount of starting compound. Here is the method: […] To determine the exact pH value of the reaction solution, 10 ml of the buffer solutions were diluted with 2 ml of acetonitrile and the pH values measured (on a Mettler Toledo […]).
About 25 mg of the precursors were placed in 1 ml of a buffer solution, 0.2 ml of acetonitrile was added and the supernatant solution was immediately injected in a […] HPLC apparatus (t=0), eluted at 3 ml/min on a reversed phase column with a mixture of water/acetonitrile containing 0.1% of TFA. The amount of the released alcohol was monitored by HPLC analysis at different time intervals at λ=214 or 254 nm. An external calibration curve for the corresponding alcohol in acetonitrile has been obtained from 4-8 dilutions. Chromatograms were recorded on a Merck Chromolith™ Performance RP-C18e column (100×4.6 mm i.d.) using a water/acetonitrile gradient (100:0 for 0.2 min then to 0:100 during 10 min or 80:20 to 20:80 during 10 min).

As for `CC(C)=CCC/C(C)=C/COC(=O)/C=C\C(=O)NCCNC(=O)/C=C\C(=O)OC/C=C(\C)CCC=C(C)C` [Example 1, (6E,11Z,19Z,24E)-2,6,25,29-tetramethyl-9,22-dioxa-14,17-diaza-2,6,11,19,24,28-triaconta-hexaene-10,13,18,21-tetrone], the “Amount of cyclized precursor” value in series [1] (pH 7.62, 4.7 h) is 97%.
Turning to `CN(CCCNC(=O)c1ccccc1C(=O)OC(C)(C)Cc1ccccc1)CCCNC(=O)c1ccccc1C(=O)OC(C)(C)Cc1ccccc1` [Example 3b, bis(1,1-dimethyl-2-phenylethyl) 2,2′-(6-methyl-1,11-dioxo-2,6,10-triazaundecane-1,11-diyl)dibenzoate], in series [1] (pH 7.62, 22.4 h), the “Amount of cyclized precursor” value was found to be 69%. Besides, in series [2], the “Hydrolysis followed by UV absorption spectra” value (“Hydrolysis followed” below) was “verified”.
Consider `CCCC(Cc1ccccc1)OC(=O)c1ccccc1C(=O)NCCCN(C)CCCNC(=O)c1ccccc1C(=O)OC(CCC)Cc1ccccc1` (racemic) [Example 2b, (±)-bis(1-benzylbutyl)2,2′-(6-methyl-1,11-dioxo-2,6,10-triazaundecane-1,11-diyl)dibenzoate], for which, in series [1] (pH 7.62, 2.1 h), the “Amount of cyclized precursor” value worked out at 98%.
On to “dendrimer 16-cascade: 1,4-diaminobutane[4-N,N,N′,N′:(1-azabutylidene)^2:N-(2-[(1,1-dimethyl-2-phenylethoxy)carbonyl]benzoyl)propylamine [Example 8]”, for which the “Amount of released alcohol” value in series [3] (pH 10.98, 4 d, phosphate-bicarbonate buffer in water/acetonitrile 16:9) is on record as 69%.
In the case of `CC(C)(Cc1ccccc1)OC(=O)c1ccccc1C(=O)NCCCN(CCCCN(CCCNC(=O)c1ccccc1C(=O)OC(C)(C)Cc1ccccc1)CCCNC(=O)c1ccccc1C(=O)OC(C)(C)Cc1ccccc1)CCCNC(=O)c1ccccc1C(=O)OC(C)(C)Cc1ccccc1` [Example 6b, Dendrimer 4-cascade: 1,4-diaminobutane[4-N,N,N′,N′]:N-(2-[(1,1-dimethyl-2-phenylethoxy)carbonyl]benzoyl)propylamine], the “Amount of cyclized precursor” value in series [1] (pH 7.62, 24.6 h) is listed as 80%. Further, the “Hydrolysis followed” value in series [2] is recorded as “verified”.
On to `C=CC(C)(CCC=C(C)C)OC(=O)c1ccccc1C(=O)NCCCN(C)CCCNC(=O)c1ccccc1C(=O)OC(C)(C=C)CCC=C(C)C` (racemic) [Example 5b, (±)-bis(1,5-dimethyl-1-vinyl-4-hexenyl) 2,2′-(6-methyl-1,11-dioxo-2,6,10-triazaundecane-1,11-diyl)dibenzoate], for which the “Amount of cyclized precursor” value in series [1] (pH 7.62, 9.4 h) is reported as 72%. Further, the “Hydrolysis followed” value in series [2] was “verified”.
With `CC(C)(Cc1ccccc1)OC(=O)c1ccccc1C(=O)NCCCN(CCCNC(=O)c1ccccc1C(=O)OC(C)(C)Cc1ccccc1)CCCN(CCCCN(CCCN(CCCNC(=O)c1ccccc1C(=O)OC(C)(C)Cc1ccccc1)CCCNC(=O)c1ccccc1C(=O)OC(C)(C)Cc1ccccc1)CCCN(CCCNC(=O)c1ccccc1C(=O)OC(C)(C)Cc1ccccc1)CCCNC(=O)c1ccccc1C(=O)OC(C)(C)Cc1ccccc1)CCCN(CCCNC(=O)c1ccccc1C(=O)OC(C)(C)Cc1ccccc1)CCCNC(=O)c1ccccc1C(=O)OC(C)(C)Cc1ccccc1` [Example 7], the “Amount of released alcohol” value in series [3] (pH 10.47, 2 d) is on record as 29%.
`CC(C)(Cc1ccccc1)OC(=O)c1ccccc1C(=O)NCCCCCCCNC(=O)c1ccccc1C(=O)OC(C)(C)Cc1ccccc1` [Example 4, bis(1,1-dimethyl-2-phenylethyl) 2,2′-(1,11-dioxo-2,10-diazaundecane-1,11-diyl)dibenzoate]: in series [1] (pH 10.47, 3.0 h), the “Amount of cyclized precursor” value is 98%.
